Data published in US11584744B2 (UNIVERSITY OF WASHINGTON, priority 2017, dated 2023).
Values after ≈ are worked out from the molar mass of the structure shown. Like-named read-outs stand apart in the source and are kept apart here.

Columns and labels:
[1] = biological target: recombinant S. aureus MetRS enzyme (Staphylococcus aureus, UniProt A0A0H2XID2); assay: Inhibition of SaMetRS, ATP depletion assay; assay type: biochemical
In short: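 N-terminal 6-His S. aureus MetRS (25 nM) was pre-incubated 15 min at room temperature with compound, 400 μg/mL E. coli tRNA and pyrophosphatase in HEPES-KOH pH 7.9, 2% DMSO. Reaction started with 150 nM ATP plus 20 μM L-methionine, ran 120 min; remaining ATP read by Kinase-Glo luminescence, IC50 by sigmoidal nonlinear regression.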

[2] = test system: E. faecium VRE (ATCC 51559); assay: MIC susceptibility testing; assay type: cell-based, Enterococcus faecium; conditions: Enterococcus faecium; read-out: E. faecium VRE (ATCC 51559) MIC
In short: (§1)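 CLSI broth microdilution in triplicate, 5×10^5 CFU/mL final, ≤0.5% DMSO; MHB for S. aureus, CA-MHB for E. coli and E. faecium, CA-MHB plus 3% laked horse blood for S. pyogenes (5% CO2).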

[3] = test system: S. aureus MSSA (ATCC 29213); assay: MIC susceptibility testing; assay type: cell-based, Staphylococcus aureus; conditions: Staphylococcus aureus, 18 h; read-out: S. aureus MSSA (ATCC 29213) MIC
[4] = Cytotoxicity testing on mammalian cells (AlamarBlue, 48 hours); assay type: cell-based; conditions: human
Experimental: Cytotoxicity testing on mammalian cells: Compounds were assayed for cytotoxicity against CRL-8155 (human lymphoblasts) and HepG2 cells (human hepatocellular carcinoma). Cells were exposed to serial dilutions of compounds for 48 hours and toxicity was quantified using AlamarBlue (ThermoFisher Scientific, Waltham, Mass.). Assays were performed in quadruplicate and EC50 values were calculated with non-linear regression methods using software by the Collaborative Drug Database (Burlingame, Calif. www.collaborativedrug.com)

[5] = test system: P. aeruginosa (ATCC 27853); assay: MIC susceptibility testing; assay type: cell-based; conditions: Pseudomonas aeruginosa, ATCC27853
[6] = test system: S. aureus MRSA (ATCC 43300); assay: MIC susceptibility testing; assay type: cell-based; conditions: Staphylococcus aureus; read-out: S. aureus MRSA (ATCC 43300) MIC
In short: as §1

E. faecalis (ATCC 29212) = assay: MIC susceptibility testing; assay type: cell-based; conditions: Enterococcus faecalis, ATCC29212; read-out: E. faecalis (ATCC 29212) MIC
E. coli (ATCC 25922) = assay: MIC susceptibility testing; assay type: cell-based; conditions: Escherichia coli, ATCC25922
In short: as §1

S. pyogenes (ATCC 19615) = assay: MIC susceptibility testing; assay type: cell-based; conditions: Streptococcus pyogenes, ATCC19615, 18 h, read-out: S. pyogenes (ATCC 19615) MIC
[7] = test system: S. pneumoniae (ATCC 49619); assay: MIC susceptibility testing; assay type: cell-based; conditions: Streptococcus pneumoniae, ATCC49619, 18 h; medium with 3% laked horse blood; read-out: S. pneumoniae (ATCC 49619) MIC
E. faecium (ATCC 19434) = assay: MIC susceptibility testing; assay type: cell-based; conditions: Enterococcus faecium, ATCC19434; read-out: E. faecium (ATCC 19434) MIC
In short: as §1

[8] = test system: S. aureus VISA (ATCC 700699); assay: MIC susceptibility testing; assay type: cell-based; conditions: Staphylococcus aureus; read-out: S. aureus VISA (ATCC 700699) MIC
In short: as §1

S. aureus (ATCC 29213) = assay: Macromolecular synthesis assays (radiolabeled precursor incorporation); assay type: cell-based, Staphylococcus aureus; conditions: 30 minute incubations
Experimental: Macromolecular synthesis assays: Methods for measuring uptake of radiolabeled precursors by S. aureus (ATCC strain 29213) were adapted from previous publications. For these assays, bacteria were grown in defined media (DM): RPMI-1640 pH 7.3±0.1 without phenol red or L-glutamine (Lonza, Basel, Switzerland) supplemented with 4 mM L-glutamine (Lonza, Basel, Switzerland), 10 mM HEPES (Lonza, Basel, Switzerland), and 1% (w/v) D-glucose (Sigma Aldrich, St. Louis, Mo.). Fresh overnight cultures grown in DM at 37° C. were diluted 1:50 in pre-warmed DM and grown at 37° C. with shaking (150 rpm) until reaching an OD600 of 0.420 correlating to ˜1*10^9 CFUs/mL in mid-log phase. Each compound was assayed in quadruplicate with an 11-point three-fold serial dilution per radioisotope. A pre-warmed 96-well V-bottom plate (Corning 3894; Corning, Corning, Mass.) containing 25 μL of 4× final concentration of test compound was inoculated with 65 μL of mid-log phase bacteria (OD600 of 0.420). Both positive and negative control wells received 25 μL untreated DM and 65 μL of inoculum at the same time. After one minute, 10 μL of radiolabeled precursor (10× final concentration in DM) was added to samples and positive control wells. Final isotope concentrations for assay of [3H]-lysine (protein), [3H]-thymidine (DNA), and [3H]-uridine (RNA) were 10 μCi/mL, 2 μCi/mL, and 2 μCi/mL respectively. […] After termination, 10 μL of 10× radiolabeled precursor was added to negative control wells. The negative control consisted of adding radiolabeled precursors after termination of the bacterial incubation in order to represent background measurement of the isotope. Plates were sealed with plate tape (Thermo Fischer Scientific, Waltham, Mass.) and shaken at 250 rpm for one hour at room temperature. Aliquots of 125 μL were transferred from the 96-well V-bottom plates to 96-well filter plates (Merck Millipore, Billerica, Mass.). To bind macromolecules, the samples were passed through the filter membrane (0.45 μM hydrophilic Durapore PVDF membrane) with a vacuum manifold, then the filter was washed with 4×200 μL 10% TCA and 1×150 μL of 95% ethanol, and dried overnight in vacuum at room temperature. 25 μL Ultima Gold scintillation fluid (Perkin Elmer, Waltham, Mass.) was added to each well and DPM was quantified using a MicroBeta^2-2450 (Perkin Elmer, Waltham, Mass.) scintillation counter. The percent incorporation was determined by subtracting each well by the average negative background and dividing by the average positive incorporation×100. Error bars represent SEM between replicates. The assay was run twice with similar results.

S. aureus = assay: Serum shift assays (MIC with and without 50% human serum); assay type: cell-based, Staphylococcus aureus; conditions: Staphylococcus aureus
Experimental: Serum shift assays: To assess the role of protein binding on compound susceptibility, MIC determinations were performed in triplicate in the presence and absence of 50% human serum. Serial threefold dilutions of 2× compound were generated in MHB and aliquoted onto 96 well plates with a DMSO limit of 0.5%. Bacteria were adjusted to 1*10^8 CFUs/mL in MHB, then further diluted 1:100 in MHB and 100% heat deactivated filter sterilized pooled human serum. Fifty microliters were added to each well of the corresponding plates, and the plates were incubated at 37° C. for ˜20 h. The lowest concentration causing ≥90% growth inhibition was recorded as the MIC.

Chain of recombinant S. aureus MetRS enzyme (A0A0H2XID2 2-657): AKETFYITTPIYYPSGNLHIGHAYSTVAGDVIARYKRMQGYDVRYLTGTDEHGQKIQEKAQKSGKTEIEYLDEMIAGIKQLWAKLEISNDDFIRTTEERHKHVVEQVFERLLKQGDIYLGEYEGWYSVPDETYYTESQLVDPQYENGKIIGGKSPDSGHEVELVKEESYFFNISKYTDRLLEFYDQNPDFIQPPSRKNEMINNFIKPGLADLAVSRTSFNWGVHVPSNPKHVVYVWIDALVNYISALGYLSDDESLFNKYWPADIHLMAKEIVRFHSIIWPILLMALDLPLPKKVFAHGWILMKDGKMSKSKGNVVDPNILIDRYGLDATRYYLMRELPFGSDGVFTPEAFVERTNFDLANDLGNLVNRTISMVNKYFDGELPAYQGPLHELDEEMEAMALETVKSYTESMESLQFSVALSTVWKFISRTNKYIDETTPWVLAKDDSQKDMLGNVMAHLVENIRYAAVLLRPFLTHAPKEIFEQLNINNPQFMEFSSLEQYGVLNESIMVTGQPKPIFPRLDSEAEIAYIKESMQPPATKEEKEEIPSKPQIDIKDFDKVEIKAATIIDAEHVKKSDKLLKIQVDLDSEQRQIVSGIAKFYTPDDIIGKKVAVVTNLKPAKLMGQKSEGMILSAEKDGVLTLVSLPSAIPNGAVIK

In the case of `Clc1cc(Cl)cc(CNCCCNc2nc3ncccc3[nH]2)c1` [Compound 1575, N1-(3,5-dichlorobenzyl)—N3-(1H-imidazo[4,5-b]pyridin-2-yl)propane-1,3-diamine], the IC50 ([1]; recombinant enzyme, lower limit of detection 0.025 μM, read-out: MetRS S. aureus (enzyme) IC50) is reported as less than 0.025 µM, the MIC [2] is reported as 0.625 µg/mL (≈ 1.78 µM) and the MIC [3] is reported as 10 µg/mL (≈ 28.6 µM). For the same compound, the CC50 at 48 h ([4]; CRL-8155 cells (human lymphoblasts), read-out: Mamm. cells (CRL8155) CC50) was 12.2 µg/mL (≈ 34.8 µM), the CC50 at 48 h ([4]; HepG2 cells (human hepatocellular carcinoma), read-out: Mamm. cells (HepG2) CC50) was greater than 17.5 µg/mL and the MIC [5] was greater than 10 µg/mL. For the same compound, the MIC [6] was greater than 10 µg/mL, the MIC (E. faecalis (ATCC 29212)) was 1.25 µg/mL (≈ 3.57 µM) and the MIC (E. coli (ATCC 25922)) was greater than 10 µg/mL. The MIC (S. pyogenes (ATCC 19615); medium with 3% laked horse blood) was greater than 10 µg/mL and the MIC [7] was greater than 10 µg/mL.
For `O=C(O)c1cn(C2CC2)c2cc(N3CCNCC3)c(F)cc2c1=O` [CIP, ciprofloxacin], the IC50 [1] was greater than 10 µM, the MIC [2] was 5 µg/mL (≈ 15.1 µM) and the MIC (E. faecium (ATCC 19434)) was 5 µg/mL (≈ 15.1 µM). It also gave an MIC (E. coli (ATCC 25922)) of 0.039 µg/mL (≈ 0.118 µM), an MIC (S. pyogenes (ATCC 19615)) of 0.625 µg/mL (≈ 1.89 µM) and an MIC [8] greater than 10 µg/mL. For the same compound, the “incorporation of 3H-thymidine (DNA synthesis)” value (S. aureus (ATCC 29213)) was “selective inhibition of DNA synthesis”, the MIC (S. aureus; read-out: Avg MIC ± SEM (+50% serum), 50% human serum) was 0.152 ± 0.01 µg/mL and the MIC (S. aureus; read-out: Avg MIC ± SEM (no serum), no serum) was 0.145 ± 0.001 µg/mL.
